Reference: patent US9394299B2, “Rilyazine derivatives and compositions for the treatment of cancer” (Warner Babcock Institute for Green Chemistry, LLC, priority 2013, dated 2016)
“Also recorded” adds a separate entry of the source.

How the values were obtained:
MDA-MB-231/ATCC (Breast) = test: NCI single point 10 μM, MDA-MB-231/ATCC; format: cell-based, human; details: 10^−5 M
Procedure: (§1) The screening is a two-stage process, beginning with the evaluation of all compounds against 60 cell lines at a single dose of 10^−5 M.
(§2) The human tumor cell lines of the cancer screening panel are grown in RPMI 1640 medium containing 5% fetal bovine serum and 2 mM L-glutamine. Cells are inoculated into 96 well microtiter plates in 100 μL at plating densities ranging from 5,000 to 40,000 cells/well depending on the doubling time of individual cell lines. After cell inoculation, the microtiter plates are incubated at 37° C., 5% CO2, 95% air and 100% relative humidity for 24 h prior to addition of experimental drugs. […]
(§3) Following drug addition, the plates are incubated for an additional 48 h at 37° C., 5% CO2, 95% air, and 100% relative humidity. […] Bound stain is subsequently solubilized with 10 mM trizma base, and the absorbance is read on an automated plate reader at a wavelength of 515 nm. […]
(§4) For the 1-dose 60 cell testing, the Growth Percent is calculated for each cell line/drug combination from the absorbance measurement for the no-drug control (C), the absorbance at time zero (Tz) and the absorbance measurement after incubation of the cells in the presence of drug (Ti): Growth Percent=[(Ti−Tz)/(C−Tz)]×100 for cell line/drug combinations for which Ti≧Tz. […]

COLO 205 (Colon Cancer) = test: NCI five point dosing, COLO 205; format: cell-based; details: Homo sapiens, read-out: LC50 (the source's name)
Procedure: (§5) RL-4 was evaluated against the 60 cell panel at five concentration levels, 10^−8 M, 10^−7 M, 10^−6 M, 10^−5 M and 10^−4 M.
as §2, §3
(§6) The percentage growth is calculated at each of the five drug concentrations levels using the seven absorbance measurements, namely absorbance at time zero (Tz), absorbance of control after incubation (C), and absorbance of test sample after incubation in the presence of drug at each of the five concentration levels (Ti). The Growth Percent is calculated as it was for the 1 dose assay: Growth Percent=[(Ti−Tz)/(C−Tz)]×100 for cell line/drug combinations for which Ti≧Tz. […]

[1] = system: 60 cell lines (human tumor cell lines of the cancer screening panel); test: NCI 60 cell line screening, five point dosing (SRB); format: cell-based
Procedure: as §5
The human tumor cell lines of the cancer screening panel are grown in RPMI 1640 medium containing 5% fetal bovine serum and 2 mM L-glutamine. Cells are inoculated into 96 well microtiter plates in 100 μL at plating densities ranging from 5,000 to 40,000 cells/well depending on the doubling time of individual cell lines. After cell inoculation, the microtiter plates are incubated at 37° C., 5% CO2, 95% air and 100% relative humidity for 24 h prior to addition of experimental drugs.
After 24 h, two plates of each cell line are fixed in situ with TCA, to represent a measurement of the cell population for each cell line at the time of drug addition Time Zero (Tz). Experimental drugs are solubilized in dimethyl sulfoxide:glycerol 9:1 at 400-fold the desired final maximum test concentration and stored frozen at −70° C. prior to use. At the time of drug addition, an aliquot of frozen concentrate is thawed and diluted to twice the desired final maximum test concentration with complete medium containing 50 μg/ml gentamicin. Additional four, 10-fold or ½ log serial dilutions are made to provide a total of five drug concentrations plus control. Aliquots of 100 μl of these different drug dilutions are added to the appropriate microtiter wells already containing 100 μl of medium, resulting in the required final drug concentrations.
Positive control is prepared by adding the known anti-tumor agent adriamycin, NSC 123127, prepared and stored the same as the compounds for testing.
Following drug addition, the plates are incubated for an additional 48 h at 37° C., 5% CO2, 95% air, and 100% relative humidity. For adherent cells, the assay is terminated by the addition of cold TCA. Cells are fixed in situ by the gentle addition of 50 μl of cold 50% (w/v) TCA (final concentration, 10% TCA) and incubated for 60 minutes at 4° C. The supernatant is discarded, and the plates are washed five times with tap water and air dried. Sulforhodamine B (SRB) solution (100 μl) at 0.4% (w/v) in 1% acetic acid is added to each well, and plates are incubated for 10 minutes at room temperature. After staining, unbound dye is removed by washing five times with 1% acetic acid and the plates are air dried. Bound stain is subsequently solubilized with 10 mM trizma base, and the absorbance is read on an automated plate reader at a wavelength of 515 nm. For suspension cells, the methodology is the same except that the assay is terminated by fixing settled cells at the bottom of the wells by gently adding 50 μl of 80% TCA (final concentration, 16% TCA).
The percentage growth is calculated at each of the five drug concentrations levels using the seven absorbance measurements, namely absorbance at time zero (Tz), absorbance of control after incubation (C), and absorbance of test sample after incubation in the presence of drug at each of the five concentration levels (Ti). The Growth Percent is calculated as it was for the 1 dose assay: Growth Percent=[(Ti−Tz)/(C−Tz)]×100 for cell line/drug combinations for which Ti≧Tz. Growth Percent=[(Ti−Tz)/Tz]×100 for cell line/drug combinations for which Ti<Tz.
For the 5-dose 60 cell testing, three dose-response parameters are determined for each experimental agent. These parameters are Growth Inhibition of 50% (GI50), drug concentration resulting in Total Growth Inhibition (TGI), and concentration resulting in 50% lethality (LC50).
Growth inhibition of 50% (GI50) is determined as the drug concentration at which Growth Percent=[(Ti−Tz)/(C−Tz)]×100=50. GI50 is the drug concentration resulting in a 50% reduction in the net protein increase compared to the increase in protein in control cells (as measured by SRB staining) during the drug incubation.
The drug concentration resulting in total growth inhibition (TGI) is determined as the drug concentration at which Ti=Tz, which corresponds to a Growth Percent of zero. […]

SK-MEL-5 (Melanoma) = test: NCI single point 10 μM, SK-MEL-5; format: cell-based, human; details: 10^−5 M
Procedure: as §1, §2, §3, §4

[2] = system: NCI-H322M (non-small cell lung cancer); test: NCI five point dosing, NCI-H322M; format: cell-based, human
Procedure: as §5, §2, §3, §6

[3] = five point dosing, 60 cell lines

For `S=c1c2ncccc2c(-c2ccccn2)nn1C1CCCCC1` [RL-4, 7-cyclohexyl-5-(pyridin-2-yl)pyrido[2,3-d]pyridazine-8(7H)-thione], the “Growth Percent” value (MDA-MB-231/ATCC (Breast)) was 129.23%, the CC50 (COLO 205 (Colon Cancer)) was 85.8 µM and the GI50 ([1]; Homo sapiens, five point dosing 10^−8 to 10^−4 M, mean of 60 cell lines, read-out: Mean GI50 for all 60 cell lines) was 20 µM. For the same molecule, the CC50 ([1]; Homo sapiens, five point dosing up to 10^−4 M, read-out: LC50 for all other cell lines (except COLO 205)) was greater than 100 µM, the “toxicity (in words)” value ([1]; concentrations up to 10^−4 M) was “not toxic at the concentrations tested; also recorded: not observed” and the “growth inhibition / anti-proliferative efficacy (in words)” value ([1]; five point dosing 10^−8 to 10^−4 M, 60 cell lines) was “significant growth inhibition across all 60 cell lines; also recorded: anti-proliferative efficacy across a range of 60 cell lines”. The “log10GI50 Delta” value [1, 3] was 1.45, the “log10GI50 Mean” value [1, 3] was −5.0 and the “log10GI50 Range” value [1, 3] was 2.45. For the same molecule, the “number of cell lines in which total growth inhibition (growth percent=0, TGI) was achieved” value ([1]; within dosage range tested, of 60 cell lines) was “eight”, the “Growth Percent” value (SK-MEL-5 (Melanoma)) was 7.87% and the Growth Percent ([2]; 10^−4 M dose) was 60%. It also gave a GI50 ([2]; Homo sapiens, five point dosing) greater than 100 µM.
